Data set [1] can be described thus: Safety: animal body weight change after dosing, tumor bearing mice. The conditions noted are these: for Weight gain (%): day 0 to day 21, IP Q5D. From the text:
Animals: Female athymic nude mice were used in this study. The experimental mice were purchased from Shibefu (Beijing) Biotechnology Co., Ltd. (QC number: SCXK Beijing 2019-0010) and maintained in a High Efficiency Particulate Air Filter (HEPA) filtered environment with cages, food and bedding sterilized by irradiation or autoclaving.
Establishment of peritoneal disseminated metastasis model of human ovarian cancer: Human ovarian cancer (SKOV-3-GFP) cells in logarithmic growth period were digested with 0.25% trypsin, rinsed with phosphate buffer (PBS) twice, centrifuged, and suspended with serum-free RPMI1640 medium. Cell suspension (6×10^6/120 μL/mouse) was injected into the peritoneal cavity of each experimental mouse for the establishment of peritoneal disseminated metastasis model of human ovarian cancer.
Groups, testing articles and treatment protocols: Day 4 after cell inoculation, all mice were subjected to systemic imaging using FluorVivo Model-100 (INDEC biosystems, CA, USA). Mice with a small deviation from average tumor load were enrolled in the study. All animals were randomly allocated to the different study groups, 6 mice in each group. Dosing schedule was Q5D (day 0, 5, 10), dosing volume was 10 μl/g, and administration route was intraperitoneal injection. Each dose of Compound 3 or Compound 5 was 9.6 mg/kg (equimolar to 2.5 mg/kg Taxol) and each dose of Taxol was 10 mg/kg. Taxol working solutions were prepared from 6 mg/mL stock solution, while Compounds were dissolved in PBS (pH 7.4) and filtered through 0.22 μm filter.
Monitoring of the experimental mice: During the period of the study, all experimental mice were checked daily for mortality or signs of morbidity. Images of tumor progression were acquired three times a week during the period of the study with the FluorVivo imaging system, Model 100/Mag (INDEC BioSystems, CA, USA). The body weights of the mice were measured three times a week during the period of the study.
Study endpoint: On Day 21 after administration, animals were euthanized by inhalation of excessive anesthetics. All tumors were exposed for imaging (under the same exposure conditions), after which the tumors were removed and weighed with an electronic balance (Sartorius BS 124 S, Germany). The tumor samples were then stored in formalin solution.
Statistical methods used in efficacy evaluation: Comparison of body weights and tumor burdens in different groups were analyzed using EXCEL t-test with an α=0.05 (two-sided).

Data set [2] deals with CNE1 nasopharyngeal carcinoma cell line. The data set is described as follows: cells. The conditions noted are these: read-out: IC50 nM; CNE1 cells. On the procedure: (§1) Cytotoxicity Assay—CCK8 Cancer Cells
(§2) The CCK-8 assay was applied to study the cytotoxicity of the peptide drug conjugates and their inhibition of proliferation of cancer cells. First, 2˜10×10^3 cells (depending on the rate of growth of different cell lines) with 100 μL, DMEM media were seeded in normal culture medium into each well of a 96-well plate. The cells were then cultured overnight at 37° C. with 4˜5% CO2. Different doses (4000, 2000, 1000, 500 nM for Hep3B, Hep G2 and MCF7/MBA-MD-231; 1000, 333.3, 100.0, 33.33, 3.333, 1.000, 0.333 nM for MCF7/ADR, 22Rv1, CNE1, HCT116, DLD-1) of Taxol and peptide drugs were added. After 48˜72 hour incubation, CCK-8 solution was added to each well. The cells were then incubated at 37° C. for 4 hours. The optical density was measured at 450/650 nm using a multiscan spectrometer (PerkinElmer's EnSpire Multilabel Plate Reader). The optical density is linearly proportional to the number of living cells in the sample:
(§3) The plate layout for MCF7/ADR, 22Rv1, CNE1, HCT116, DLD-1 cell lines is shown below.

Data set [3] concerns DLD-1 colorectal adenocarcinoma cell line. The data set is described as follows: cells. As to conditions: read-out: IC50 nM; DLD-1 cells. The procedure: as §1, §2, §3
Data set [4] concerns MCF7/ADR multidrug-resistant breast cancer cell. Kind of data set: cells. As to conditions: read-out: IC50 nM; MCF7/ADR cells. The procedure: as §1, §2, §3
In data set [5] the test system is 22Rv1 human prostate carcinoma epithelial cell line. The data set is described as follows: cells. The conditions noted are these: read-out: IC50 nM; 22Rv1 cells. The procedure:
as §1, §2, §3

Data set [6] deals with HCT116 human colorectal carcinoma cell. The data set is described as follows: cells. The conditions noted are these: read-out: IC50 nM; HCT116 cells. The procedure:
as §1, §2, §3

In data set [7] the test system is liver cancer Hep 3B cells. The data set is described as follows: CCK-8 cytotoxicity / anti-proliferation assay, Hep 3B. The class given is cell-based. On the procedure:
as §1
as §2, with “sample: […]” for “sample:”

In data set [8] the test system is Human ovarian cancer (SKOV-3-GFP) cells. The data set is described as follows: Efficacy in metastatic ovarian cancer model (peritoneal disseminated metastasis). The class given is in vivo, Female athymic nude mice. The conditions noted are these: for Average tumor inhibitory rate (%) (MEAN ± SD): Table 10A (Compound 3 set), from final tumor weights. The procedure:
The tumor samples were then stored in formalin solution.
Method: The method was the same as described for Biological Example 4.
Endpoint tumor load of each group: At Day 21 after administration, the tumor load of each group was calculated by dissecting and weighing the tumor in the abdominal cavity. The vehicle was the control.
Tumor inhibitory rate (IR): Tumor IR was calculated based on the final average tumor weights according to the formula: IR (%)=(1-treatment(t)/control(c))×100

The mark [9] stands for this setting: separate experiment, 38.4 mg/kg, 3 Q5D doses, tumor bearing mice.

SMILES strings stand for the structures.

Broadly, the IC50 is the concentration that gives 50% inhibition. As for `CC(=O)N[C@@H](CSSCCCC(=O)OC(C(=O)O[C@H]1C[C@@]2(O)[C@@H](OC(=O)c3ccccc3)[C@@H]3[C@]4(OC(C)=O)CO[C@@H]4C[C@H](O)[C@@]3(C)C(=O)[C@H](OC(C)=O)C(=C1C)C2(C)C)[C@@H](NC(=O)c1ccccc1)c1ccccc1)C(=O)N[C@H](CCCNC(=N)N)C(=O)N[C@H](CCCNC(=N)N)C(=O)N[C@H](CCCNC(=N)N)C(=O)N[C@H](CCCNC(=N)N)C(=O)N[C@H](CCCNC(=N)N)C(=O)N[C@H](CCCNC(=N)N)C(=O)N[C@H](CCCNC(=N)N)C(=O)N[C@H](CCCNC(=N)N)C(N)=O` (stereo partly drawn) [Compound 3, Ac-L-Cysteine (paclitaxel-4-mercaptobutanoate)-D-Arginine8-NH2], the “body weight higher compared with the vehicle (PBS) group” value in data set [1] (9.6 mg/kg IP Q5D, end of experiment) was “about 24%”. Also, the “Weight on day 21 (MEAN ± SD)” value in data set [1] (Table 7A (Compound 3 set), IP Q5D (day 0, 5, 10), Taxol 10 mg/kg, Compd 3 9.6 mg/kg) was found to be 18.5 ± 1.4. The “Weight on day 0 (MEAN ± SD)” value in data set [1] (Table 7A (Compound 3 set), baseline, IP Q5D (day 0, 5, 10), Taxol 10 mg/kg, Compd 3 9.6 mg/kg) turned out to be 16.3 ± 1.0. Also, the “Weight gain (%)” value in data set [1] (Table 7A (Compound 3 set), Taxol 10 mg/kg, Compd 3 9.6 mg/kg) was “about 13%”; in data set [1] (Table 7A (Compound 3 set), Taxol 10 mg/kg, Compd 3 9.6 mg/kg, listed as Compd 3) it was 13%. For the same compound, in data set [1] (setting [9]), the animal deaths result is “no animal deaths were reported”. The “body weight change on Day 21” value in data set [1] (setting [9]) was “+22.1%”. Also, the concentration for half-maximal inhibition (IC50) in data set [2] came out at 15.9 nM; in data set [3], 62 nM; in data set [4] it was 438 nM; in data set [5], 21.6 nM; in data set [6], 21.5 nM. In data set [7] (4 μM), the Anti-proliferation % is reported as 36.0%. For the same compound, the “cancer cell inhibition compared to Compound 5 (FIG. 2A)” value in data set [7] (all tested concentrations (500-4000 nM)) is reported as “substantially superior to cancer cell inhibition compared to Compound 5 at all tested concentrations”. The “tumor inhibition effect, better than Compound 5” value in data set [8] (9.6 mg/kg) is recorded as “at least 10%”. Moreover, the “acute toxic effect / animal death” value in data set [8] (9.6 mg/kg IP Q5D, ovarian cancer model) was “no obvious acute toxic effect”. Besides, the “average tumor fluorescence area as % of the Taxol (10 mg/kg) group” value in data set [8] (Day 21, 9.6 mg/kg IP Q5D) is “about 100%”. Besides, in data set [8] (Day 21, 9.6 mg/kg IP Q5D), the “average tumor weight as % of the Vehicle group” value is listed as “about 10%”. Moreover, in data set [8] (Day 21, Taxol 10 mg/kg, Compound 3 / Compound 5 9.6 mg/kg IP Q5D), the “mean tumor fluorescence area as % of the Vehicle (PBS) group” value is given as “about 20%”. Further, in data set [8] (Table 8A (Compound 3 set), baseline fluorescence area, Taxol 10 mg/kg, Compd 3 9.6 mg/kg IP Q5D), the “Average tumor area on day 0 (MEAN ± SD)” value came to 18.6 ± 5.3. The “Average tumor area on day 21 (MEAN ± SD)” value in data set [8] (Table 8A (Compound 3 set), fluorescence area, Taxol 10 mg/kg, Compd 3 9.6 mg/kg IP Q5D) came out at 30.9 ± 24.2. Besides, the “Mean tumor mass (g) (MEAN ± SD)” value in data set [8] (Table 9B (titled Compound 5 set), Day 21, Taxol 10 mg/kg, conjugate 9.6 mg/kg IP Q5D) was 0.2555 ± 0.1388 g. Further, the “Average tumor inhibitory rate (%) (MEAN ± SD)” value in data set [8] (Day 21, Taxol 10 mg/kg, Compd 3 9.6 mg/kg IP Q5D) is 90±8%; in data set [8] (Day 21, Taxol 10 mg/kg, Compd 3 9.6 mg/kg IP Q5D, listed as Compd 3), 90 ± 8%.

For the origin of these results see patent publication US12337037B2, “Taxol conjugate compounds, pharmaceutical compositions comprising the same, and methods for their use” (N1 Life, Inc, priority 2021, dated 2025).
